Data published in article PMC7099204, “Geranylated Coumarins From Thai Medicinal Plant Mammea siamensis With Testosterone 5α-Reductase Inhibitory Activity” (Frontiers in Chemistry, 2020).
Read-outs that look alike come from different tables or passages of the source.

Biological target: T1, testosterone 5α-reductase (Rattus norvegicus, UniProt P24008)
T1 sequence (P24008 1-259): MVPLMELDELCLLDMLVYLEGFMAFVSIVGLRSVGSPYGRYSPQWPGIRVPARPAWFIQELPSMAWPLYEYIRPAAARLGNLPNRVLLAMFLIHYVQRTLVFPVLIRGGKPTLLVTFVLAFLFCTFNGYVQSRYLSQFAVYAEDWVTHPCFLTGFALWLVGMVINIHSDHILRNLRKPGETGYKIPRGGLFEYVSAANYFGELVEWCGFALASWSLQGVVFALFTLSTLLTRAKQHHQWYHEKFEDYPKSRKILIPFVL
Assay: Assay for testosterone 5α-reductase inhibitory activity (rat liver S9 fractions, HPLC of remaining testosterone)
Format: biochemical
Experimental: The experiment was performed in accordance with previously reported methods (Matsuda et al., [2001]; Lee et al., [2012]; Koseki et al., [2015]) with slight modifications. In brief, the assay was performed in 48-well microplates (Sumitomo Bakelite Co., Ltd., Tokyo, Japan). The reaction solution was pre-incubated with or without a test sample (5 μL/well, dissolved in DMSO), in a potassium phosphate buffer (40 mM, pH 6.5, 490 μL/well) containing substrate (0.35 nmol of testosterone, Tokyo Chemical Industry Co., Ltd., Tokyo, Japan) and NADPH (10 nmol, Oriental Yeast Co., Ltd., Tokyo, Japan) at room temperature (25°C) for 20 min. The enzymatic reaction was initiated by the addition of rat liver S9 fractions (10 μL/well, dissolved in the phosphate buffer, 20.6 μg/well, Oriental Yeast Co., Ltd., Tokyo, Japan, lot no. 109031513) at 37°C for 30 min. After incubation, the reaction mixture was immediately heated in boiling water for 2 min to stop the reaction. Then the reaction solution of each well was transferred to a microtube and extracted with 500 μL of EtOAc. After the microtube was centrifuged (10,000 rpm, 5 min), an aliquot of each EtOAc phase (300 μL) was transferred into another tube. The solvent in the tube was evaporated and the residue was dissolved in 30 μL of acetonitrile containing an internal standard (I.S.) fludrocortisone acetate (20 μg/mL, Sigma-Aldrich, Co., LLC, St. Louis, USA). […] The 5α-reductase inhibitory activity was determined from the following equation using the peak area ratios (r = testosterone/I.S.). Experiments were performed in triplicate or quadruple, and IC50 values were determined graphically. The 5α-reductase inhibitor finasteride (Tokyo Chemical Industry Co., Ltd., Tokyo, Japan) was used as a reference compound.
Inhibition(%)=[r(T)-r(C)/r(B)-r(C)]× 100
Control (C): enzyme (+), test sample (–); Test (T): enzyme (+), test sample (+); Blank (B): enzyme (–), test sample (+).

[1] = 100 μM, mean ± S.E.M. (N = 3–4), read-out: Inhibition (%)
[2] = 3 μM, mean ± S.E.M. (N = 3–4), read-out: Inhibition (%)
[3] = 10 μM, mean ± S.E.M. (N = 3–4), read-out: Inhibition (%)
[4] = 30 μM, mean ± S.E.M. (N = 3–4), read-out: Inhibition (%)

SMILES	inhibition at 100 µM [1] [%]	inhibition at 3 µM [2] [%]	inhibition at 10 µM [3] [%]	inhibition at 30 µM [4] [%]	further results
CCCC(=O)c1c(O)c2c(c3c([C@@H](O)CC)cc(=O)oc13)OC(C)(CCC=C(C)C)C=C2 (some centres unmarked) [Compound 1, kayeassamin I]	37.5 ± 11.1	–	–	–	–
CC[C@H](O)c1cc(=O)oc2c(C(=O)CC(C)C)c(O)c3c(c12)OC(C)(CCC=C(C)C)C=C3 (some centres unmarked) [Compound 2, Mammeasin E]	89.5 ± 15.8	20 ± 9.2	30.9 ± 9.3	53.9 ± 12.7	–
CCC(C)C(=O)c1c(O)c2c(c3c([C@@H](O)CC)cc(=O)oc13)OC(C)(CCC=C(C)C)C=C2 (some centres unmarked) [Compound 3, Mammeasin F]	14.9 ± 5.4	–	–	–	–
CCCC(=O)c1c(O)c(C/C=C(\C)CCC=C(C)C)c(O)c2c([C@H](CC)OC(C)=O)cc(=O)oc12 [Compound 4, Mammeasin A]	129 ± 20.9	12.6 ± 10.5	40.8 ± 12.8	53.1 ± 5.2	–
CC[C@H](OC(C)=O)c1cc(=O)oc2c(C(=O)CC(C)C)c(O)c(C/C=C(\C)CCC=C(C)C)c(O)c12 [Compound 5, Mammeasin B]	83.7 ± 4.3	35.3 ± 6.1	39.9 ± 4.2	58.8 ± 9.6	–
CC(C)=CCC/C(C)=C/Cc1c(O)c(C(=O)C(C)C)c2oc(=O)cc3c2c1OC(C)C3 (centres unmarked) [Compound 6, Mammeasin C]	52.9 ± 22.5	3.4 ± 13.1	8.8 ± 10	17.9 ± 10.6	–
CCCC(=O)c1c(O)c(C/C=C(\C)CCC=C(C)C)c2c3c(cc(=O)oc13)CC(C)O2 (centres unmarked) [Compound 7, Mammeasin D]	16.4 ± 5.8	–	–	–	–
CCCC(=O)c1c(O)c(C/C=C(\C)CCC=C(C)C)c(O)c2c([C@@H](O)CC)cc(=O)oc12 [Compound 8, kayeassamin A]	20.2 ± 7.9	–	–	–	–
CCCC(=O)c1c(O)c(CC=C(C)C)c2oc(=O)cc([C@@H](O)CC)c2c1O [Compound 9, Kayeassamin E]	79.9 ± 12.7	2.6 ± 7.1	11.5 ± 12.7	51.1 ± 12.4	–
CCC(C)C(=O)c1c(O)c(CC=C(C)C)c2oc(=O)cc([C@@H](O)CC)c2c1O (some centres unmarked) [Compound 10, Kayeassamin F]	94.6 ± 1.3	4.6 ± 1.1	41 ± 6.4	68.6 ± 3.9	–
CC[C@H](O)c1cc(=O)oc2c(CC=C(C)C)c(O)c(C(=O)CC(C)C)c(O)c12 [Compound 11, Kayeassamin G]	62.3 ± 3.2	14.4 ± 9.7	37.5 ± 6.9	61.3 ± 3	–
CCC(C)C(=O)c1c(O)c(C/C=C(\C)CCC=C(C)C)c(O)c2c([C@H](CC)OC(C)=O)cc(=O)oc12 (some centres unmarked) [Compound 12, surangin B]	38.5 ± 5	–	–	–	–
CCC(C)C(=O)c1c(O)c(C/C=C(\C)CCC=C(C)C)c(O)c2c([C@@H](O)CC)cc(=O)oc12 (some centres unmarked) [Compound 13, surangin C]	124 ± 9.6	28.2 ± 7.7	63.6 ± 8.3	114 ± 6.7	–
CC(C)=CCc1c(O)c(C(=O)CC(C)C)c(O)c2c(-c3ccccc3)cc(=O)oc12 [Compound 17, Mammea A/AA]	–	–	–	–	inhibition at 3 µM: 18.9 ± 7%; inhibition at 10 µM: 32 ± 3.9%; inhibition at 30 µM: 62 ± 2.8%; inhibition at 100 µM: 92.9 ± 5.3%
CCC(C)C(=O)c1c(O)c(CC=C(C)C)c2oc(=O)cc(-c3ccccc3)c2c1O (centres unmarked) [Compound 18, mammea A/AB]	23.3 ± 7.2	–	–	–	–
CCCC(=O)c1c(O)c(CC=C(C)C)c2oc(=O)cc(-c3ccccc3)c2c1O [Compound 19, Mammea A/AC]	41.5 ± 11.4	–	–	–	–
CC(C)=CCc1c(O)c(C(=O)C(C)C)c(O)c2c(-c3ccccc3)cc(=O)oc12 [Compound 20, Mammea A/AD]	30.3 ± 2.1	–	–	–	–
CC(C)CC(=O)c1c2c(c3oc(=O)cc(-c4ccccc4)c3c1O)C=CC(C)(C)O2 [Compound 24, Mammea A/AA cyclo D]	38.3 ± 3.8	–	–	–	–
CCC(C)C(=O)c1c2c(c3oc(=O)cc(-c4ccccc4)c3c1O)C=CC(C)(C)O2 (centres unmarked) [Compound 25, Mammea A/AB cyclo D]	6.7 ± 4.5	–	–	–	–
CCCC(=O)c1c2c(c3oc(=O)cc(-c4ccccc4)c3c1O)C=CC(C)(C)O2 [Compound 26, Mammea A/AC cyclo D]	32 ± 1.9	–	–	–	–
CCCc1cc(=O)oc2c3c(c(C(=O)C(C)CC)c(O)c12)OC(C)(C)C=C3 (centres unmarked) [Compound 27, Mammea B/AB cyclo D]	40.7 ± 18.1	–	–	–	–
CCCC(=O)c1c2c(c3oc(=O)cc(CCC)c3c1O)C=CC(C)(C)O2 [Compound 28, Mammea B/AC cyclo D]	27.3 ± 2	–	–	–	–
CCCC(=O)c1c(O)c2c(c3c(C(CC)OC(C)=O)cc(=O)oc13)OC(C)(C)C=C2 (centres unmarked) [Compound 29, Mammea E/BC cyclo D]	31.9 ± 3.9	–	–	–	–
CC[C@H](O)c1cc(=O)oc2c3c(c(C(=O)CC(C)C)c(O)c12)OC(C)(C)C=C3 [Compound 31, deacetylmammea E/AA cyclo D]	37.1 ± 4	–	–	–	–
CCC(C)C(=O)c1c(O)c2c(c3c([C@@H](O)CC)cc(=O)oc13)OC(C)(C)C=C2 (some centres unmarked) [Compound 32, deacetylmammea E/BB cyclo D]	31.9 ± 8.8	–	–	–	–
CCCC(=O)c1c(O)c2c(c3c([C@@H](O)CC)cc(=O)oc13)OC(C)(C)C=C2 [Compound 33, deacetylmammea E/BC cyclo D]	40.8 ± 4.1	–	–	–	–
CC(C)CC(=O)c1c2c(c3oc(=O)cc(-c4ccccc4)c3c1O)CC(C(C)(C)O)O2 (centres unmarked) [Compound 34, mammea A/AA cyclo F]	57 ± 15.7	13.8 ± 6.7	21.6 ± 10.3	62.8 ± 18.1	–
CCCC(=O)c1c2c(c3oc(=O)cc(-c4ccccc4)c3c1O)CC(C(C)(C)O)O2 (centres unmarked) [Compound 35, mammea A/AC cyclo F]	54.8 ± 23.2	4.2 ± 6.1	18.4 ± 6.9	32.5 ± 6	–
CC(C)(C)NC(=O)[C@H]1CC[C@H]2[C@@H]3CC[C@H]4NC(=O)C=C[C@]4(C)[C@H]3CC[C@]12C [Finasteride, finasteride, reference compound]	–	–	–	–	inhibition at 0.1 µM: 48.5 ± 10.9%; inhibition at 0.3 µM: 61.8 ± 11.4%; inhibition at 1 µM: 76 ± 9.8%; inhibition at 3 µM: 91.3 ± 13.1%
